Structures are written as SMILES. Values after ≈ are worked out from the molar mass of the structure shown.

One experiment has as its system HSV-1. Briefly: HSV Antiviral (ELISA) Assay. The experiment is classed as cell-based, herpes simplex virus type 1. The note with it: Vero cells, HSV-1; for IC50: Human alphaherpesvirus 1, Vero, read-out: IC50 Ug/ml HSV. In outline: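 Replication measured as glycoprotein D signal in fixed cells: anti-gD antibody plus β-galactosidase-linked secondary, fluorogenic substrate read at 365/450 nm. Vero cells (2% FBS DMEM) received compound 30 min pre-infection, HSV-1 MOI 0.006, ~24 h incubation; IC50 relative to no-compound fluorescence.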
In general terms: An ELISA detects its analyte on a solid surface through an enzyme-linked reagent.

The subject of another experiment is VZV strain Ellen. Briefly: VZV Antiviral (ELISA) Assay. The experiment is classed as cell-based, varicella-zoster virus. The conditions noted are these: human foreskin fibroblast cells; for IC50 / inhibition at 10 µg/mL: Human alphaherpesvirus 3, Fibroblast; for IC50: read-out: IC50 Ug/ml VZV; for inhibition at 10 µg/mL: read-out: % inhibition 10 ug/ml VZV, 10 ug/ml. In a few lines:
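Low-MOI (<0.1) Ellen infection of HFF overnight; cell mix plated 3.5×10^4/well with compound, DMEM + 2% FBS, 3 d, 37° C, 5% CO2. Fix, anti-gpII mAb ELISA, MUG substrate, fluorescence. IC50 vs compound-free signal.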

Another experiment relates to HCMV wild-type. The experiment in a line: HCMV yield assay. The conditions noted are these: human foreskin fibroblasts; for IC50: Human betaherpesvirus 5, Fibroblast, read-out: IC50 Ug/ml HCMV. The experiment is classed as cell-based, human cytomegalovirus. In a few lines:
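Value is the compound amount cutting virus yield titer by 50% (IC50) or 90% (IC90). Human foreskin fibroblasts infected with wild-type HCMV (MOI typically 0.2) under varying compound; progeny harvested day 3, titered compound-free on fibroblasts, plaques scored at 2 weeks.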

In the case of `CC(=O)Nc1ccc(NC(=S)Nc2ccc(N(C)CCCN(C)C)c(Cl)c2)cc1` [Example 298, N-[4-(3-{3-Chloro-4-[(3-dimethylamino-propyl)-methyl-amino]-phenyl}-thioureido)-phenyl]-acetamide], the IC50 was over 50 µg/mL in the experiment with HSV-1, over 10 µg/mL with VZV strain Ellen and 15 µg/mL (≈ 34.6 µM) in the experiment on HCMV wild-type. Moreover, the inhibition at 10 µg/mL in the experiment with VZV strain Ellen was determined as 1%.

In the case of `CC(=O)Nc1ccc(NC(=S)Nc2ccc(NC3CCCCC3)c(Cl)c2)cc1` [Example 299, N-{4-[3-(3-Chloro-4-cyclohexylamino-phenyl)-thioureido]-phenyl}-acetamide], the IC50 in the experiment on HSV-1 is over 10 µg/mL; in the experiment on VZV strain Ellen, 3.8 µg/mL (≈ 9.11 µM); in the experiment with HCMV wild-type, 6 µg/mL (≈ 14.4 µM). The inhibition at 10 µg/mL with VZV strain Ellen was determined as 72%.

Take `CC(=O)Nc1ccc(NC(=S)Nc2ccc(N(C)CCN(C)C)c(Cl)c2)cc1` [Example 300]: the “IC50 Ug/ml HSV” value in the experiment on HSV-1 was over 50 Ug/ml. Besides, in the experiment on VZV strain Ellen, the “% inhibition 10 ug/ml VZV” value was determined as 23% and the “IC50 Ug/ml VZV” value is over 10 Ug/ml. Besides, the “IC50 Ug/ml HCMV” value in the experiment on HCMV wild-type was 1.5 Ug/ml.

With `COc1cc(OC)c(NC(=S)Nc2ccc(NC(C)=O)c(C(F)(F)F)c2)cc1Cl` [Example 305, N-{4-[3-(5-Chloro-2,4-dimethoxy-phenyl)-thioureido]-2-trifluoromethyl-phenyl}-acetamide], the IC50 in the experiment on HSV-1, with VZV strain Ellen and in the experiment with HCMV wild-type was over 10 µg/mL each time. Further, the inhibition at 10 µg/mL in the experiment on VZV strain Ellen was 32%.

Regarding `COc1cc(OC)c(NC(=S)Nc2ccc(NC(C)=O)c(C)c2)cc1Cl` [Example 309, N-{4-[3-(5-Chloro-2,4-dimethoxy-phenyl)-thioureido]-2-methyl-phenyl}-acetamide], the IC50 in the experiment with HSV-1 is 8 µg/mL (≈ 20.3 µM); in the experiment on VZV strain Ellen it was over 10 µg/mL; in the experiment on HCMV wild-type, 25 µg/mL (≈ 63.5 µM). The inhibition at 10 µg/mL with VZV strain Ellen turned out to be 22%.

For the compound `CC(=O)Nc1ccc(NC(=S)Nc2ccc(NC(C)=O)c(Cl)c2)cc1` [Example 312, N-{4-[3-(4-Acetylamino-phenyl)-thioureido]-2-chloro-phenyl}-acetamide], the results for the IC50 in the experiment on HSV-1, with VZV strain Ellen and in the experiment with HCMV wild-type were 50 µg/mL (≈ 133 µM), over 10 µg/mL and 50 µg/mL (≈ 133 µM), respectively. In addition, in the experiment on VZV strain Ellen, the inhibition at 10 µg/mL was found to be 22%.

Regarding `CCOC(=O)Nc1ccc(NC(=S)Nc2ccc(NC(C)=O)cc2)cc1Cl` [Example 313, {4-[3-(4-Acetylamino-phenyl)-thioureido]-2-chloro-phenyl}-carbamic acid ethyl ester], the IC50 in the experiment on HSV-1, in the experiment with VZV strain Ellen and in the experiment with HCMV wild-type was over 10 µg/mL in each case. Moreover, in the experiment on VZV strain Ellen, the inhibition at 10 µg/mL is 36%.

For the compound `COc1cc(OC)c(NC(=S)Nc2ccc(NC(C)=O)nc2)cc1Cl` [Example 314, N-{5-[3-(5-Chloro-2,4-dimethoxy-phenyl)-thioureido]-pyridin-2-yl}-acetamide], the IC50 in the experiment with HSV-1 was 2 µg/mL (≈ 5.25 µM); with VZV strain Ellen, over 10 µg/mL; in the experiment on HCMV wild-type, 30 µg/mL (≈ 78.8 µM). The inhibition at 10 µg/mL in the experiment with VZV strain Ellen came out at 34%.

In the case of `CC(=O)Nc1ccc(NC(=S)Nc2ccc(NC3CCN(Cc4ccccc4)CC3)c(Cl)c2)cc1` [Example 315, N-(4-{3-[4-(1-Benzyl-piperidin-4-ylamino)-3-chloro-phenyl]-thioureido}-phenyl)-acetamide], the IC50 with HSV-1 is 8 µg/mL (≈ 15.7 µM); in the experiment with VZV strain Ellen, over 10 µg/mL; in the experiment on HCMV wild-type it was 1.5 µg/mL (≈ 2.95 µM). Also, the inhibition at 10 µg/mL with VZV strain Ellen amounted to 40%.

As to `CC(=O)Nc1ccc(NC(=S)Nc2ccc(NCCN(C)C)c(Cl)c2)cc1` [Example 316, N-(4-{3-[3-Chloro-4-(2-dimethylamino-ethylamino)-phenyl]-thioureido}-phenyl)-acetamide], the IC50 in the experiment on HSV-1 is 30 µg/mL (≈ 73.9 µM); in the experiment on VZV strain Ellen, over 10 µg/mL; in the experiment with HCMV wild-type, over 50 µg/mL. The inhibition at 10 µg/mL with VZV strain Ellen came out at 56%.

Regarding `COCCN(C)c1ccc(NC(=S)Nc2ccc(NC(C)=O)cc2)cc1Cl` [Example 317, N-[4-(3-{3-Chloro-4-[(2-methoxy-ethyl)-methyl-amino]-phenyl}-thioureido)-phenyl]-acetamide], the IC50 in the experiment on HSV-1 is 35 µg/mL (≈ 86 µM); with VZV strain Ellen, over 10 µg/mL; in the experiment with HCMV wild-type, 2 µg/mL (≈ 4.91 µM). Further, in the experiment with VZV strain Ellen, the inhibition at 10 µg/mL amounted to 30%.

As for `CC(=O)Nc1ccc(NC(=S)Nc2ccc(NCCCN(C)C)c(Cl)c2)cc1` [Example 318, N-(4-{3-[3-Chloro-4-(3-dimethylamino-propylamino)-phenyl]-thioureido}-phenyl)-acetamide], the values for the IC50 in the experiment with HSV-1, in the experiment with VZV strain Ellen and with HCMV wild-type were over 50 µg/mL, over 10 µg/mL and over 50 µg/mL, respectively. The inhibition at 10 µg/mL in the experiment with VZV strain Ellen stood at 26%.

Take `CC(=O)Nc1ccc(NC(=S)Nc2ccc(NC3CCN(Cc4ccccc4)C3)c(Cl)c2)cc1` (stereo not drawn) [Example 319, N-(4-{3-[4-(1-Benzyl-pyrrolidin-3-ylamino)-3-chloro-phenyl]-thioureido}-phenyl)-acetamide]: the IC50 in the experiment with HSV-1 came out at 6 µg/mL (≈ 12.1 µM); in the experiment with VZV strain Ellen, 7 µg/mL (≈ 14.2 µM); in the experiment with HCMV wild-type, 5 µg/mL (≈ 10.1 µM). In the experiment on VZV strain Ellen, the inhibition at 10 µg/mL worked out at 82%.

For the compound `COc1cc(OC)c(NC(=S)Nc2cc(O)c(NC(C)=O)cc2Cl)cc1Cl` [Example 321, N-{5-Chloro-4-[3-(5-chloro-2,4-dimethoxy-phenyl)-thioureido]-2-hydroxy-phenyl}-acetamide], the IC50 is 7 µg/mL (≈ 16.3 µM) with HSV-1, over 10 µg/mL in the experiment on VZV strain Ellen and 18 µg/mL (≈ 41.8 µM) in the experiment on HCMV wild-type. In the experiment with VZV strain Ellen, the inhibition at 10 µg/mL turned out to be 28%.

Regarding `COc1cc(OC)c(NC(=S)Nc2cc(C)c(NC(C)=O)cc2Cl)cc1Cl` [Example 326, N-{5-Chloro-4-[3-(5-chloro-2,4-dimethoxy-phenyl)-thioureido]-2-methyl-phenyl}-acetamide], the values for the IC50 with HSV-1, in the experiment on VZV strain Ellen and with HCMV wild-type were 10 µg/mL (≈ 23.3 µM), over 10 µg/mL and over 10 µg/mL, respectively. For the same compound, the inhibition at 10 µg/mL in the experiment with VZV strain Ellen came out at 19%.

For `COc1cc(OC)c(NC(=S)Nc2ccc(NC(C)=O)c3ccccc23)cc1Cl` [Example 329, N-{4-[3-(5-Chloro-2,4-dimethoxy-phenyl)-thioureido]-naphthalen-1-yl}-acetamide], the IC50 with HSV-1 is 4 µg/mL (≈ 9.3 µM); in the experiment on VZV strain Ellen, over 10 µg/mL; with HCMV wild-type, over 10 µg/mL. Further, the inhibition at 10 µg/mL with VZV strain Ellen came to 38%.

For `CC(=O)Nc1ccc(NC(=S)Nc2ccc(OC3CCN(C)C3)c(Cl)c2)cc1` (stereo not drawn) [Example 334, N-(4-{3-[3-Chloro-4-(1-methyl-pyrrolidin-3-yloxy)-phenyl]-thioureido}-phenyl)-acetamide], the IC50 was 35 µg/mL (≈ 83.5 µM) with HSV-1, over 10 µg/mL in the experiment on VZV strain Ellen and 18 µg/mL (≈ 43 µM) in the experiment with HCMV wild-type. Besides, the inhibition at 10 µg/mL in the experiment with VZV strain Ellen was 7%.

Turning to `CC(=O)Nc1ccc(NC(=S)Nc2ccc(OC3CCN(C)CC3)c(Cl)c2)cc1` [Example 335, N-(4-{3-[3-Chloro-4-(1-methyl-piperidin-4-yloxy)-phenyl]-thioureido}-phenyl)-acetamide], the IC50 was 30 µg/mL (≈ 69.3 µM) in the experiment on HSV-1, over 10 µg/mL in the experiment with VZV strain Ellen and 30 µg/mL (≈ 69.3 µM) with HCMV wild-type. Besides, the inhibition at 10 µg/mL in the experiment with VZV strain Ellen was 8%.

Turning to `CC(=O)Nc1ccc(NC(=S)Nc2ccc(OCCCN(C)C)c(Cl)c2)cc1` [Example 336, N-(4-{3-[3-Chloro-4-(3-dimethylamino-propoxy)-phenyl]-thioureido}-phenyl)-acetamide], the IC50 is 40 µg/mL (≈ 95 µM) in the experiment on HSV-1, over 10 µg/mL in the experiment with VZV strain Ellen and 50 µg/mL (≈ 119 µM) with HCMV wild-type. Besides, in the experiment with VZV strain Ellen, the inhibition at 10 µg/mL is 17%.

For the compound `COc1cc(OC)c(NC(=S)Nc2ccc(NC(C)=O)c(C(=O)O)c2)cc1Cl` [Example 337, 2-Acetylamino-5-[3-(5-chloro-2,4-dimethoxy-phenyl)-thioureido]-benzoic acid], the IC50 was over 50 µg/mL in the experiment on HSV-1, over 10 µg/mL in the experiment with VZV strain Ellen and over 50 µg/mL with HCMV wild-type. In addition, in the experiment with VZV strain Ellen, the inhibition at 10 µg/mL came out at 31%.

Regarding `CC(=O)Nc1ccc(NC(=S)Nc2ccc(OCCN(C)C)c(Cl)c2)cc1` [Example 343, N-(4-{3-[3-Chloro-4-(2-dimethylamino-ethoxy)-phenyl]-thioureido}-phenyl)-acetamide], the figures for the IC50 in the experiment with HSV-1, with VZV strain Ellen and in the experiment with HCMV wild-type were over 50 µg/mL, over 10 µg/mL and 40 µg/mL (≈ 98.3 µM), respectively. The inhibition at 10 µg/mL in the experiment on VZV strain Ellen stood at 38%.

`CC(=O)Nc1ccc(NC(=S)Nc2ccc(OC3CCCCC3)c(Cl)c2)cc1` [Example 345, N-{4-[3-(3-Chloro-4-cyclohexyloxy-phenyl)-thioureido]-phenyl}-acetamide]: the IC50 in the experiment on HSV-1, with VZV strain Ellen and in the experiment with HCMV wild-type was over 10 µg/mL each time. The inhibition at 10 µg/mL in the experiment on VZV strain Ellen is 30%.

With `COc1cc(OC)c(NC(=S)Nc2ccc(NC(C)=O)cc2C(F)(F)F)cc1Cl` [Example 358, N-{4-[3-(5-Chloro-2,4-dimethoxy-phenyl)-thioureido]-3-trifluoromethyl-phenyl}-acetamide], the IC50 was 2 µg/mL (≈ 4.47 µM) in the experiment with HSV-1, over 10 µg/mL in the experiment on VZV strain Ellen and over 10 µg/mL with HCMV wild-type. In addition, in the experiment on VZV strain Ellen, the inhibition at 10 µg/mL turned out to be 31%.

In the case of `CC(=O)Nc1ccc(NC(=S)Nc2ccc(NC(=O)CN(C)C)c(Cl)c2)cc1` [Example 360, N-{4-[3-(4-Acetylamino-phenyl)-thioureido]-2-chloro-phenyl}-2-dimethyl-amino-acetamide], in the experiment with HSV-1, the “IC50 Ug/ml HSV” value is given as over 10 Ug/ml. For the same compound, in the experiment with VZV strain Ellen, the “% inhibition 10 ug/ml VZV” value was 16% and the “IC50 Ug/ml VZV” value is given as over 10 Ug/ml. Also, the “IC50 Ug/ml HCMV” value in the experiment on HCMV wild-type is on record as over 10 Ug/ml.

These data come from US6335350B1, “Acetamide and substituted acetamide-containing thiourea inhibitors of herpes viruses” (American Home Products Corporation, priority 1998, dated 2002).
